Results reported in US20130310371A1 (priority 2012, published 2013).

Tested on: rat
Experiment: animal or person
Format: in vivo
Conditions: ip

Cc1cnc(NC(=O)C2=C(O)c3ccccc3S(=O)(=O)N2C)s1 [meloxicam]
ED50 (Rattus norvegicus, 3 h, read-out: ED50 (95% CI), applied alone): 141 mg/kg
analgesic effect in words (rat, in vivo): dose-dependent analgesic effect
